Measured values as given in ChEMBL document CHEMBL3085706, “Scorpiand-like azamacrocycles prevent the chronic establishment of Trypanosoma cruzi in a murine model” (Eur J Med Chem, 2013).
Activity calls are given as the source filed them. The rule behind the calls is not given here.

What was measured:
Trypanosoma cruzi [1] = assay: Trypanocidal activity against extracellular trypomastigote form of Trypanosoma cruzi IRHOD/CO/2008/SN3 after 24 hrs by Neubauer hemocytometric analysis; assay type: functional, organism-based; conditions: IRHOD/CO/2008/SN3, 24 h
Trypanosoma cruzi [2] = assay: Trypanocidal activity against intracellular amastigote form of Trypanosoma cruzi IRHOD/CO/2008/SN3 infected in African green monkey Vero cells after 72 hrs by Giemsa staining assay; assay type: functional, organism-based; conditions: IRHOD/CO/2008/SN3, Vero
Trypanosoma cruzi [3] = assay: Trypanocidal activity against extracellular epimastigote form of Trypanosoma cruzi IRHOD/CO/2008/SN3 after 72 hrs by Neubauer hemocytometric analysis; assay type: functional, organism-based; conditions: IRHOD/CO/2008/SN3, 72 h
Trypanosoma cruzi [4] = assay: Trypanocidal activity against epimastigote form of Trypanosoma cruzi IRHOD/CO/2008/SN3 assessed as induction of ethanol production at IC25 after 96 hrs by NMR spectra analysis; assay type: functional, organism-based
Trypanosoma cruzi [5] = assay: Trypanocidal activity against epimastigote form of Trypanosoma cruzi IRHOD/CO/2008/SN3 assessed as inhibition of acetate excretion at IC25 after 96 hrs by NMR spectra analysis; assay type: functional, organism-based
Trypanosoma cruzi [6] = assay: Trypanocidal activity against epimastigote form of Trypanosoma cruzi IRHOD/CO/2008/SN3 assessed as inhibition of succinate excretion at IC25 after 96 hrs by NMR spectra analysis; assay type: functional, organism-based
[7] = Inhibition of Escherichia coli Mn-SOD assessed as reduction of nitrobluetetrazolium measured for 10 mins by spectrophotometric analysis
[8] = Inhibition of Fe-SOD in Trypanosoma cruzi IRHOD/CO/2008/SN3 epimastigotes assessed as reduction of nitrobluetetrazolium measured for 10 mins by spectrophotometric analysis
Trypanosoma cruzi [9] = assay: Inhibition of Fe-SOD in Trypanosoma cruzi IRHOD/CO/2008/SN3 epimastigotes assessed as reduction of nitrobluetetrazolium at 12.5 to 25 uM measured for 10 mins by spectrophotometric analysis relative to control
Trypanosoma cruzi [10] = assay: Trypanocidal activity against epimastigote form of Trypanosoma cruzi IRHOD/CO/2008/SN3 assessed as appearance of swollen mitochondria at IC25 after 96 hrs by transmission electron microscopic analysis; assay type: functional, organism-based
Trypanosoma cruzi [11] = assay: Trypanocidal activity against epimastigote form of Trypanosoma cruzi IRHOD/CO/2008/SN3 assessed as disorganization of cytoplasm at IC25 after 96 hrs by transmission electron microscopic analysis; assay type: functional, organism-based
Trypanosoma cruzi [12] = assay: Trypanocidal activity against bloodstream trypomastigote form of Trypanosoma cruzi IRHOD/CO/2008/SN3 infected in BALB/c mouse assessed as reduction of anti-parasitic Ig-G level in serum at 5 mg/kg/day, ip administered for 5 days measured over 40 to 120 days post-infection by ELISA; assay type: functional, organism-based
Trypanosoma cruzi [13] = assay: Trypanocidal activity against bloodstream trypomastigote form of Trypanosoma cruzi IRHOD/CO/2008/SN3 infected in BALB/c mouse assessed as reduction of circulating parasite burden at 5 mg/kg, ip administered for 5 to 10 days measured 22 to 60 days post-infection by Neubauer hemocytometric analysis; assay type: functional, organism-based; parameters: dose 5 mg/kg
Trypanosoma cruzi [14] = assay: Trypanocidal activity against trypomastigote form of Trypanosoma cruzi IRHOD/CO/2008/SN3 infected in African green monkey Vero cells assessed as inhibition of trypomastigotes released in culture medium at IC25 relative to control; assay type: functional
Trypanosoma cruzi [15] = assay: Trypanocidal activity against amastigote form of Trypanosoma cruzi IRHOD/CO/2008/SN3 infected in African green monkey Vero cells assessed as inhibition of amastigotes load per cell at IC25 preincubated for 12 hrs followed by compound washout measured after 10 days by Giemsa staining-based microscopic analysis relative to control; assay type: functional
Trypanosoma cruzi [16] = assay: Trypanocidal activity against amastigote form of Trypanosoma cruzi IRHOD/CO/2008/SN3 infected in African green monkey Vero cells assessed as inhibition of parasite infection rate at IC25 preincubated for 12 hrs followed by compound washout measured after 10 days by Giemsa staining-based microscopic analysis relative to control; assay type: functional
[17] = Selectivity index, ratio of IC50 for African green monkey Vero cells to IC50 for extracellular trypomastigote form of Trypanosoma cruzi IRHOD/CO/2008/SN3; assay type: toxicity, cell-based; conditions: read-out: Ratio IC50
[18] = Selectivity index, ratio of IC50 for African green monkey Vero cells to IC50 for intracellular amastigote form of Trypanosoma cruzi IRHOD/CO/2008/SN3; assay type: toxicity, cell-based; conditions: read-out: Ratio IC50
[19] = Selectivity index, ratio of IC50 for African green monkey Vero cells to IC50 for extracellular epimastigote form of Trypanosoma cruzi IRHOD/CO/2008/SN3; assay type: toxicity, cell-based; conditions: read-out: Ratio IC50
Vero = assay: Cytotoxicity against African green monkey Vero cells after 72 hrs by flow cytometric analysis; assay type: cell-based; conditions: Chlorocebus sabaeus
Trypanosoma cruzi [20] = assay: Trypanocidal activity against epimastigote form of Trypanosoma cruzi IRHOD/CO/2008/SN3 assessed as inhibition of lactate excretion at IC25 after 96 hrs by NMR spectra analysis; assay type: functional, organism-based
Trypanosoma cruzi [21] = assay: Trypanocidal activity against epimastigote form of Trypanosoma cruzi IRHOD/CO/2008/SN3 assessed as inhibition of alanine excretion at IC25 after 96 hrs by NMR spectra analysis; assay type: functional, organism-based
Trypanosoma cruzi [22] = assay: Trypanocidal activity against epimastigote form of Trypanosoma cruzi IRHOD/CO/2008/SN3 assessed as loss of plasma membrane integrity at IC25 after 96 hrs by transmission electron microscopic analysis; assay type: functional, organism-based
Trypanosoma cruzi [23] = assay: Trypanocidal activity against epimastigote form of Trypanosoma cruzi IRHOD/CO/2008/SN3 assessed as excessive dilation of kinetoplast at IC25 after 96 hrs by transmission electron microscopic analysis; assay type: functional, organism-based
Trypanosoma cruzi [24] = assay: Trypanocidal activity against epimastigote form of Trypanosoma cruzi IRHOD/CO/2008/SN3 assessed as cytoplasmic vacuolization and disintegration at IC25 after 96 hrs by transmission electron microscopic analysis; assay type: functional, organism-based
Trypanosoma cruzi [25] = assay: Trypanocidal activity against epimastigote form of Trypanosoma cruzi IRHOD/CO/2008/SN3 assessed as lysis of epimastigotes at IC25 after 96 hrs by transmission electron microscopic analysis; assay type: functional, organism-based
Mus musculus [26] = assay: Hepatotoxicity in BALB/c mouse infected with bloodstream trypomastigote form of Trypanosoma cruzi IRHOD/CO/2008/SN3 assessed as presence of necrotic cells in portal space at 5 mg/kg/day, ip administered for 5 days measured 150 days post-infection by light microscopic analysis; assay type: toxicity, organism-based; parameters: route intraperitoneal; conditions: in vivo, 3600 h
Mus musculus [27] = assay: Hepatotoxicity in BALB/c mouse infected with bloodstream trypomastigote form of Trypanosoma cruzi IRHOD/CO/2008/SN3 assessed as hepatic destruction in portal space at 5 mg/kg/day, ip administered for 5 days measured 150 days post-infection by light microscopic analysis; assay type: toxicity, organism-based; parameters: route intraperitoneal; conditions: in vivo, 3600 h
Mus musculus [28] = assay: Hepatotoxicity in BALB/c mouse infected with bloodstream trypomastigote form of Trypanosoma cruzi IRHOD/CO/2008/SN3 assessed as centrilobular destruction of hepatic vein at 5 mg/kg/day, ip administered for 5 days measured 150 days post-infection by light microscopic analysis; assay type: toxicity, organism-based; parameters: route intraperitoneal; conditions: in vivo, 3600 h
Mus musculus [29] = assay: Hepatotoxicity in BALB/c mouse infected with bloodstream trypomastigote form of Trypanosoma cruzi IRHOD/CO/2008/SN3 assessed as lymphocytic infiltration in portal tracts at 5 mg/kg/day, ip administered for 5 days measured 150 days post-infection by light microscopic analysis; assay type: toxicity, organism-based; parameters: route intraperitoneal; conditions: in vivo, 3600 h
Mus musculus [30] = assay: Hepatotoxicity in BALB/c mouse infected with bloodstream trypomastigote form of Trypanosoma cruzi IRHOD/CO/2008/SN3 assessed as vessels with thickened walls at 5 mg/kg/day, ip administered for 5 days measured 150 days post-infection by light microscopic analysis; assay type: toxicity, organism-based; parameters: route intraperitoneal; conditions: in vivo
Mus musculus [31] = assay: Hepatotoxicity in BALB/c mouse infected with bloodstream trypomastigote form of Trypanosoma cruzi IRHOD/CO/2008/SN3 assessed as delocalized hepatic destruction at 5 mg/kg/day, ip administered for 5 days measured 150 days post-infection by light microscopic analysis; assay type: toxicity, organism-based; parameters: route intraperitoneal; conditions: in vivo, 3600 h
Mus musculus [32] = assay: Hepatotoxicity in BALB/c mouse infected with bloodstream trypomastigote form of Trypanosoma cruzi IRHOD/CO/2008/SN3 assessed as granuloma with lymphocytic infiltrate at 5 mg/kg/day, ip administered for 5 days measured 150 days post-infection by light microscopic analysis; assay type: toxicity, organism-based; parameters: route intraperitoneal; conditions: in vivo, 3600 h
Mus musculus [33] = assay: Hepatotoxicity in BALB/c mouse infected with bloodstream trypomastigote form of Trypanosoma cruzi IRHOD/CO/2008/SN3 assessed as interstitial hemorrhage at 5 mg/kg/day, ip administered for 5 days measured 150 days post-infection by light microscopic analysis; assay type: toxicity, organism-based; parameters: route intraperitoneal; conditions: in vivo, 3600 h

Cl.c1ccc(CNCCN2CCNCc3cccc(n3)CNCC2)nc1
IC50 (Trypanosoma cruzi [1]): 18 µM | IC50 (Trypanosoma cruzi [2]): 10 µM | IC50 (Trypanosoma cruzi [3]): 9 µM | Activity (Trypanosoma cruzi [4]): Active | inhibition (Trypanosoma cruzi [5]): Active | inhibition (Trypanosoma cruzi [6]): Active | IC50 [7]: 62.5 µM | IC50 [8]: 8.2 µM | inhibition (Trypanosoma cruzi [9]): 100% | Activity (Trypanosoma cruzi [10]): Active | Activity (Trypanosoma cruzi [11]): Active | Activity (Trypanosoma cruzi [12]): Active | Activity (Trypanosoma cruzi [13]): Active | inhibition (INH) (Trypanosoma cruzi [14]): 82% | inhibition (INH) (Trypanosoma cruzi [15]): 60% | inhibition (INH) (Trypanosoma cruzi [16]): 77% | selectivity ratio [17]: 20.3 | selectivity ratio [18]: 36.4 | selectivity ratio [19]: 42.2 | IC50 (Vero): 366 µM | inhibition (Trypanosoma cruzi [20]): Active | inhibition (Trypanosoma cruzi [21]): Active

c1cc2nc(c1)CNCCN(CCNCc1cccc3ccccc13)CCNC2
IC50 (Trypanosoma cruzi [1]): 19.5 µM | IC50 (Trypanosoma cruzi [2]): 16.1 µM | IC50 (Trypanosoma cruzi [3]): 10 µM | selectivity ratio [17]: 16.7 | selectivity ratio [18]: 20.2 | selectivity ratio [19]: 31.2 | IC50 (Vero): 325 µM

Br.NCCN1CCNCc2cccc(n2)CNCC1
IC50 (Trypanosoma cruzi [1]): 16.3 µM | IC50 (Trypanosoma cruzi [2]): 7.8 µM | IC50 (Trypanosoma cruzi [3]): 6.5 µM | Activity (Trypanosoma cruzi [4]): Active | inhibition (Trypanosoma cruzi [5]): Active | inhibition (Trypanosoma cruzi [6]): Active | IC50 [7]: 111 µM | IC50 [8]: 12.5 µM | inhibition (Trypanosoma cruzi [9]): 100% | Activity (Trypanosoma cruzi [22]): Active | Activity (Trypanosoma cruzi [23]): Active | Activity (Trypanosoma cruzi [24]): Active | Activity (Trypanosoma cruzi [25]): Active | Activity (Trypanosoma cruzi [12]): Active | Activity (Trypanosoma cruzi [13]): Active | inhibition (INH) (Trypanosoma cruzi [14]): 58% | inhibition (INH) (Trypanosoma cruzi [15]): 46% | inhibition (INH) (Trypanosoma cruzi [16]): 73% | selectivity ratio [17]: 16.5 | selectivity ratio [18]: 34.5 | selectivity ratio [19]: 41.4 | IC50 (Vero): 270 µM | inhibition (Trypanosoma cruzi [20]): Active | inhibition (Trypanosoma cruzi [21]): Active

NCCCNCCN1CCNCc2cccc(n2)CNCC1
IC50 (Trypanosoma cruzi [1]): 27.6 µM | IC50 (Trypanosoma cruzi [2]): 20 µM | IC50 (Trypanosoma cruzi [3]): 21 µM | selectivity ratio [17]: 6.1 | selectivity ratio [18]: 8.3 | selectivity ratio [19]: 8 | IC50 (Vero): 167 µM

O=C(Cn1ccnc1[N+](=O)[O-])NCc1ccccc1 [BENZNIDAZOLE]
IC50 (Trypanosoma cruzi [1]): 22.6 µM | IC50 (Trypanosoma cruzi [2]): 23 µM | Activity (Mus musculus [26]): Toxic | Activity (Mus musculus [27]): Toxic | Activity (Mus musculus [28]): Non-toxic | Activity (Mus musculus [29]): Non-toxic | Activity (Mus musculus [30]): Non-toxic | Activity (Mus musculus [31]): Toxic | Activity (Mus musculus [32]): Toxic | Activity (Trypanosoma cruzi [12]): Active | Activity (Trypanosoma cruzi [13]): Active | inhibition (INH) (Trypanosoma cruzi [14]): 27% | inhibition (INH) (Trypanosoma cruzi [15]): 12% | inhibition (INH) (Trypanosoma cruzi [16]): 39% | Activity (Mus musculus [33]): Non-toxic
